According to patent US8563599B2, “Methods for synthesizing glycinols, glyceollins I and II, compositions of selected intermediates, and therapeutic uses thereof” (The United States of America, represented by the Secretary …, priority 2008, dated 2013):
Like-named read-outs stand apart in the source and are kept apart here.

Columns and labels:
[1] = tested on: NCI/ADR-RES cells; experiment: Growth inhibition assay (NCI method, sulforhodamine B), NCI/ADR-RES; format: cell-based, human; settings: for GI50: read-out: GI50 (μM) NCI/ADR-RES; for fall-off in activity in NCI/ADR-RES versus MCF7: multidrug resistant cell line over-expressing Pgp
[2] = tested on: MCF12A cells; experiment: Growth inhibition assay (NCI method, sulforhodamine B), MCF12A; format: cell-based, human; settings: for GI50: read-out: GI50 (μM) MCF12A
[3] = ABTS antioxidant assay; settings: for Trolox Equivalents (μmol/μmol): IC50 compared to IC50 of trolox; for IC50: concentration causing 50% reduction in ABTS absorbance, 2 min, room temperature; for antioxidant activity relative to the standards daidzein and genistein: ABTS assay, summary of Table 1
Protocol: This example illustrates how the biological data pertaining to antioxidant properties of the compounds was obtained.
The antioxidant activity of each test agent was assayed by a colorimetric assay described in the literature that utilizes 2,2′-azinobis-3-ethylbenzothiazoline-6-sulfonic acid (ABTS). ABTS has an intense blue-green color in its free radical form, but is colorless without the free radical. Free radical ABTS was generated by reacting 7 mM ABTS with 2.45 mM potassium persulfate in water for 24-48 hr at room temperature in the dark. Test agents were diluted in 50/50 phosphate buffered saline (PBS)/ethanol to a series of five concentrations, then added to a 96 well half-area plate using 50 μl per well with four wells for each agent concentration. Four control wells containing 50/50 PBS/ethanol without test agents were setup for comparison for each test agent. Trolox, a water-soluble form of vitamin E commonly employed as an antioxidant standard, was also tested in each set of experiments. The free radical ABTS solution was diluted with 50/50 PBS/ethanol to give an absorbance of 1.4 absorbance units at 734 nm, and was then added 50 μl per well to two of the four wells for each condition. The other two wells for each condition received 50 μl of 50/50 PBS/ethanol without ABTS to provide background correction absorbance readings. All dilution and plate loading operations were performed on a Packard Multiprobe II HTS automated liquid handling system. […] Readings for wells with ABTS were background corrected using the corresponding wells containing matching test agent levels without ABTS. The background corrected absorbance of each test agent concentration was then compared to the control wells without agent to determine the percent decrease in color intensity, corresponding to the percent of ABTS free radical reduction. A fit of percent absorbance decrease versus test agent concentration was then used to estimate the concentration causing a 50% reduction in absorbance, called the IC50. The test agent IC50 values were then compared to the IC50 of trolox to calculate the trolox equivalents (TE, moles of trolox needed to give the same level of antioxidant activity as one mole of test agent) for each agent. Smaller IC50 values or larger TE values indicate higher levels of antioxidant activity.

[4] = tested on: MCF7 cells; experiment: Growth inhibition assay (NCI method, sulforhodamine B), MCF7; format: cell-based, human; settings: for GI50: read-out: GI50 (μM) MCF7
[5] = tested on: estrogen receptor (ERE-luciferase) in MCF7 ER-positive cells; experiment: ERE-Luciferase assay, estrogenic and antiestrogenic activity; format: cell-based, human; settings: concentration not given
Protocol: Cell Culture Studies (MCF7 ER-Positive Cells)
Human cancer cell lines derived from breast (MCF7, ER-positive cells) were cultured in 75 ml culture flasks in DMEM (Invitrogen, Co.) supplemented with 10% FBS (Life Technologies, Inc., Gaithersburg, Md.), basic minimum MEM essential (50×, Invitrogen Co.) and MEM non-essential (100×, Invitrogen, Co.) amino acids, sodium pyruvate (100× Invitrogen Co.), antimicotic-antibiotic (10,000 U/mL penicillin G sodium; 10,000 μg/mL streptomycin sulphate; 25 μg/mL amphotericin B as Fungizone®), and human recombinant insulin (4 mg/mL. Invitrogen Co.). The culture flasks were maintained in a tissue culture incubator in a humidified atmosphere of 5% CO2 and 95% air at 37° C. For estrogen studies, cells were washed with PBS 3 times and grown in phenol red-free DMEM supplemented with 5% dextran-coated charcoal-treated FBS (5% CS-FBS) for 72 h before plating for each particular experiment.
Results were then assessed by using an ERE-luciferase assay. The cells were plated in 24 well plates at 5×10^5 cells/well in the same media and allowed to attach overnight. After 18 hours, cells were transfected for 5 h in serum supplemented-free DMEM with […] pGL2-ERE2X-TK-luciferase plasmid, using 6 μl of effectine (Qiagen)/μg of DNA. After 5 h the transfection medium was removed and replaced with phenol red-free DMEM supplemented with 5% CS-FBS containing vehicle, 17β-estradiol, GLY I, or 17β-estradiol plus GLY I, and incubated at 37° C. After 18 h the medium was removed, and 100 μl of lysis buffer was added per well and then incubated for 15 min at room temperature. Cell debris was pelleted by centrifugation at 15000×g for 5 min. cell extracts were normalized for protein concentration using reagent according to the protocol supplied by the manufacturer (Bio-Rad Laboratories, Inc., Hercules, Calif.). Luciferase activity for the cell extracts was determined using Luciferase substrate (Promega Corp.) in an Autoluminat Plus luminometer.

[6] = biological target: T1, hrER-α (alpha estrogen receptor) (Homo sapiens, UniProt P03372); experiment: ER-α competition binding assay (fluorescence anisotropy, ES2 displacement); settings: ERα/ES2 complex, 2 h room temperature, FIG. 9; read-out: IC50 for 50% inhibition of a standard's binding with the alpha estrogen receptor (ER-α)
T1 sequence (P03372 1-595): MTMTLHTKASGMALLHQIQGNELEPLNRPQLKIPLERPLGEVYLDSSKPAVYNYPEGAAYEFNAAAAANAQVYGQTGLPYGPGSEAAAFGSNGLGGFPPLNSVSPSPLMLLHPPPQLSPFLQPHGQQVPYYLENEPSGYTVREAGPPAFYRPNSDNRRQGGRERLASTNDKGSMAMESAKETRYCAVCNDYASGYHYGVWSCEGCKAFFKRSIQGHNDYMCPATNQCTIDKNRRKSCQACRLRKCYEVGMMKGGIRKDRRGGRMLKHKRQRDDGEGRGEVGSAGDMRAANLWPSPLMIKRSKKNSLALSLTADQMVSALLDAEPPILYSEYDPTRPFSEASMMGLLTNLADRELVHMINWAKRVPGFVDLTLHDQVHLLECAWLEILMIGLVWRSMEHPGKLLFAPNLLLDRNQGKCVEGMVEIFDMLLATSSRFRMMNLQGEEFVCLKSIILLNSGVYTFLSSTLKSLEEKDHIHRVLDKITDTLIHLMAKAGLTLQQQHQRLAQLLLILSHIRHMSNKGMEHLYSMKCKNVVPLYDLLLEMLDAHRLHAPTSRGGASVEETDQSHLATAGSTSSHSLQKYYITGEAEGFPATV
Protocol: This example illustrates how the biological data pertaining to interaction of the compounds with the alpha-estrogen receptors was obtained.
A 200 μM working stock solution of GLY I was prepared from an original 10 mM DMSO stock solution. The working stock solution was serially diluted in triplicate in screening buffer to the desired concentrations. hrER-α and ES2 were added to a final concentration of 2 nM and 3 nM, respectively. Negative (ER+ES2, equivalent to 0% inhibition) and positive (free ES2, equivalent to 100% inhibition) controls in the absence of competitor were measured in duplicate. After 2 h at room temperature, the anisotropy values in each tube were measured using the Beacon 2000 system CO. The anisotropy values were converted to percent inhibition using the following formula: I%=(A0−A)/(A0−A100)×100, where I% is the percent inhibition, A0 is 0% inhibition, A100 is 100% inhibition, and A represents the observed value. Polarization values were converted to percent inhibition to make the data more intuitive to the reader and to normalize the day-to-day differences in the starting 0% inhibition polarization values. The percent inhibition versus competitor concentration curves were analyzed by nonlinear least-squares curve fitting and yielded an IC50 value (the concentration of competitor needed to displace half of the bound ligand). To compare binding affinities of the test compounds to those reported in the literature, IC50 values were converted to relative binding affinities (RBA) using E2 as a standard. The E2 RBA was set equal to 100 […].

[7] = Homo sapiens, NCI/ADR-RES, multidrug resistant cell line, 48 hr
[8] = MCF-12A, non-cancerous 'normal' human breast epithelial cells, 48 hr
[9] = MCF7, human breast cancer cells, 48 hr, 10% serum
[10] = multidrug resistant cell line, 48 hr
[11] = non-cancerous 'normal' human breast epithelial cells, 48 hr
[12] = human breast cancer cells, 48 hr, 10% serum
[13] = Homo sapiens, NCI/ADR-RES, 48 h

Compound	IC50 [3]	Trolox Equivalents (μmol/μmol) [3]	GI50 [1, 10]	GI50 [2, 11]	GI50 [4, 12]	other results
O=c1c(-c2ccc(O)cc2)coc2cc(O)ccc12 [Daidzein, reference compound]	3.3 ± 0.2 µM	3.0 ± 0.1 μmol/μmol				GI50 [1, 7]: 150 µM; GI50 [2, 8]: 120 µM; GI50 [4, 9]: 200 µM
CC(=O)O[C@H]1C(=O)[C@@]2(C)[C@H]([C@H](OC(=O)c3ccccc3)[C@]3(O)C[C@H](OC(=O)[C@H](O)[C@@H](NC(=O)c4ccccc4)c4ccccc4)C(C)=C1C3(C)C)[C@]1(OC(C)=O)CO[C@@H]1C[C@@H]2O [paclitaxel, reference compound]						fall-off in activity in NCI/ADR-RES versus MCF7 [1]: ~1,000 fold; potency in MCF7 versus MCF12A (differential in activity) ([2]; cancer versus normal breast cells): nearly equivalent
CC(C)(C)[Si](C)(C)Oc1ccc(C2(O)COc3cc(O)ccc3C2O)c(O)c1 (racemic) [3 (+/−), (+) 4′-(t-Butyldimethylsilyloxy)-2′,7-dihydroxy-isoflavan-3,4-diol]	4.6 ± 0.3 µM	2.0 ± 0.1 μmol/μmol				GI50 [1, 13]: 21 µM; GI50 ([2]; Homo sapiens, MCF-12A, 48 h): 36 µM; GI50 ([4]; Homo sapiens, MCF7, 48 h): 31 µM
CC1(C)C=Cc2c(ccc3c2OC[C@@]2(O)c4ccc(O)cc4O[C@@H]32)O1 [isolated GLY I, reference compound]						IC50 [6]: 1100 nM
O=c1c(-c2ccc(O)cc2)coc2cc(O)cc(O)c12 [Genistein, reference compound]	3.3 ± 0.1 µM	3.0 ± 0.1 μmol/μmol				GI50 [1, 7]: 17 µM; GI50 [2, 8]: 22 µM; GI50 [4, 9]: 46 µM
CC(C)(C)[Si](C)(C)Oc1ccc(C2(O)COc3cc(OCc4ccccc4)ccc3C2O)c(OCc2ccccc2)c1 (racemic) [2 (+/−), (+) 4′-(t-Butyldimethylsilyloxy)-2′,7-dibenzyloxy-isoflavan-3,4-diol]	> 100 µM	0.008 ± 0.006 μmol/μmol				GI50 [1, 13]: 120 µM; fall-off in activity in NCI/ADR-RES versus MCF7 [1]: ca. 100 fold; GI50 ([2]; Homo sapiens, MCF-12A, 48 h): 20 µM; antioxidant activity relative to the standards daidzein and genistein [3]: weak activity; GI50 ([4]; Homo sapiens, MCF7, 48 h): 10 µM

Continued, in another order:

IC50 [3]	Compound	Trolox Equivalents (μmol/μmol) [3]	GI50 [1, 10]	GI50 [2, 11]	GI50 [4, 12]	other results
5 ± 0.4 µM	CC(C)(C)[Si](C)(C)Oc1ccc2c(c1)OC1c3ccc(O)cc3OCC21O (single isomer, unassigned; (+)) [4 (+), (+) 9-(t-Butyldimethylsilyloxy)-glycinol]	1.9 ± 0.1 μmol/μmol	13 µM	15 µM	14 µM	
3.5 ± 0.3 µM	Oc1ccc2c(c1)OC[C@@]1(O)c3ccc(O)cc3O[C@@H]21 (racemic) [Glycinol (+/−), (+) Glycinol]	2.8 ± 0.2 μmol/μmol	> 1000 µM	> 1000 µM	> 1000 µM	estrogenic activity (ERE-Luciferase) [5]: significantly stronger estrogenic material; antioxidant activity relative to the standards daidzein and genistein [3]: about equiactive to the standards; growth inhibitory activity ([4]; human breast cell lines, 10% serum): lack of growth inhibitory activity
5 ± 0.5 µM	CC(C)(C)[Si](C)(C)Oc1ccc2c(c1)OC1c3ccc(O)cc3OCC21O (single isomer, unassigned; (-)) [4 (−), (−) 9-(t-Butyldimethylsilyloxy)-glycinol]	1.9 ± 0.1 μmol/μmol	8.7 µM	11 µM	7.1 µM	
4.6 ± 0.2 µM	CC(C)(C)[Si](C)(C)Oc1ccc2c(c1)OC1c3ccc(O)cc3OCC21O (racemic) [4 (+/−), (+) 9-(t-Butyldimethylsilyloxy)-glycinol]	2.0 ± 0.1 μmol/μmol	2.9 µM	4 µM	4.1 µM	
